From patent US20150165033A1, “COMPOSITION FOR NASAL APPLICATION” (BBU-VITA CORP., priority 2012, published 2015)

Legend:
[1] = tested on: catalepsy caused by a single intraperitoneal injection of haloperidol; test: Spontaneous motor activity in the test "Open Field", catalepsy caused by haloperidol; type: in vivo; settings: sum of movements in Open Field; haloperidol 0.25 mg/kg i.p. alone; male rats
Protocol: The restoration of spontaneous motor activity in rats as the sum of the movements in the test “Open Field” in the experimental model of a catalepsy caused by a single intraperitoneal (i.p.) injection of haloperidol (0.25 mg/kg, “Ratiopharm,” Germany). Dopamine (0.125 mg/kg, Polfa S.A. (Poland) was administered nasally in 50 μl in the solution of the spray once in each nostril in combination with the oxygen anion radicals (SAR) and/or the active substances of the nitrogen oxide according to the present invention (Group IV, “Composition 1”). The experiments were performed on non-purebred male rats having a body mass of 250±37 g.

duration of sleep = test: Narcotic action of phenobarbital, duration of sleep; type: in vivo; settings: phenobarbital control 150 mg/kg
From the text: The enhancement of the narcotic effect of the barbiturate phenobarbital in “Composition 3,” administered nasally.

Structure (SMILES)	Spontaneous Activity [1]	Duration of sleep (duration of sleep)
O=C(CCCN1CCC(O)(c2ccc(Cl)cc2)CC1)c1ccc(F)cc1 [Haloperidol, haloperidol]	3.6 ± 3.4	–
CCC1(c2ccccc2)C(=O)NC(=O)NC1=O [Phenobarbital, phenobarbital]	–	192 ± 29.9 min
